Data as given in patent US10711006B2, “Selective Bruton's tyrosine kinase inhibitor and use thereof” (HANGZHOU HERTZ PHARMACEUTICAL CO., LTD., priority 2016, dated 2020).

Legend:
[1] = tested on: human diffuse large B lymphoma (TMD-8); assay: In-vitro tumor cell proliferation inhibition (CCK-8), TMD-8; conditions: TMD8, 72 h, read-out: Tumor cell proliferation inhibitory activity (IC50, nM) TMD-8
Experimental: (§1) The in-vitro antitumor activity assay was carried out on the synthesized compound by using different solid tumors and leukemia cell lines:
(§2) Cell lines: human lung cancer cell (A549), human mantle cell lymphoma (MINO), diffuse giant B-cell lymphoma (OCI-LY10), and human diffuse large B lymphoma (TMD-8).
(§3) Preparation method of the drug: the drug was dissolved in DMSO to make a 10 mM stock solution, and then the stock solution was diluted in a certain ratio to obtain 5 different concentrations (test concentration 100×). In-vitro culture of tumor cells:
(§4) The tumor cells A549, MINO, OCI-LY10, and TMD-8 were seeded in a 96-well plate at 4000 cells/200 μL/well and then incubated overnight at 37° C. in a 5% CO2 cell culture incubator. 2 μL of the compound was added to each well to final concentrations of 50 μM, 10 μM, 2 μM, 0.4 μM, and 0.08 μM and then incubated for 72 hours at 37° C. in a 5% CO2 cell incubator, with DMSO (2%) as a control group. […] Wells loaded with the corresponding amount of cell culture fluid the and CCK-8 solution but no cells were considered as blank controls. The absorbance (OD value) was measured at 450 nm using a microplate reader, and the obtained data was used to calculate IC50.

[2] = tested on: diffuse giant B-cell lymphoma (OCI-LY10); assay: In-vitro tumor cell proliferation inhibition (CCK-8), OCI-LY10; conditions: Homo sapiens, OCI-Ly10, 72 h, read-out: Tumor cell proliferation inhibitory activity (IC50, nM) OCI-LY10
Experimental: as §1, §2, §3, §4

[3] = tested on: human lung cancer cell (A549); assay: In-vitro tumor cell proliferation inhibition (CCK-8), A549; conditions: A549, 72 h, read-out: Tumor cell proliferation inhibitory activity (IC50, μM) A549
Experimental: as §1, §2, §3, §4

BTK Kinase = BTK Kinase (Homo sapiens (Human), UniProt Q06187); assay: In-vitro Btk kinase inhibitory activity assay; assay type: biochemical
Experimental: In-Vitro Btk Kinase Inhibitory Activity Assay for Compounds of the Present Invention:
10 μL of the 50× drug stock solution was added to a 96-well plate and then 90 μL of a 1× Kinase Buffer was added and the 96-well plate was shaken for 10 minutes on a shaker. From each well of the 96-well plate, 5 μL of the drug solution was taken and then transferred to a 384-well plate which was provided with 2 duplicate wells.
Preparation of a 2.5× Kinase Buffer: an enzyme was added to the 1× kinase base buffer.
Prepare a 2.5× oligopeptide solution: FAM-labeled oligopeptide and ATP were added to the 1× kinase base buffer.
10 μL of the 2.5× Kinase Buffer was added to the 384-well plate loaded with 5 μL of the drug solution and incubation was then carried out for 10 minutes at room temperature. 10 μL of the 2.5× oligopeptide solution was added to the 384-well plate and incubation was then carried out for 1 hour at 28° C. The reaction was stopped by adding 25 μL of a stop buffer. The readings were recorded and the inhibition rate of the compound on the enzyme was calculated. The IC50 of BTK kinase was calculated by fitting.

[4] = tested on: human mantle cell lymphoma (MINO); assay: In-vitro tumor cell proliferation inhibition (CCK-8), MINO; conditions: 72 h, read-out: Tumor cell proliferation inhibitory activity (IC50, μM) MINO
hERG potassium channel = hERG potassium channel (Homo sapiens (Human), UniProt Q12809); assay: hERG potassium channel inhibitory activity, manual patch clamp in CHO cells; assay type: cell-based; conditions: CHO cells stably expressing hERG, whole-cell patch clamp
Experimental: The cells used in this experiment were CHO cell lines transfected with HergCdna and stably expressing Herg channels (supplied by Sophion Bioscience, Denmark). The cells were cultured in a medium containing the following components (all from Invitrogen): Ham's F12 medium, 10% (v/v) inactivated fetal bovine serum, 100 μg/ml hygromycin B, 100 μg/ml Geneticin. […] 24 to 48 hours before an electrophysiological experiment, CHO Herg cells were transferred to circular slides placed in the culture dishes and grow with the same culture liquid under the same culture conditions as above. The density of CHO Herg cells on each circular slide was required to reach such a value that most cells were independent and stand alone.
2. Treatment and Dilution of a Compound
Before the test, the compound was first diluted with DMSO at gradient to make stock solutions with concentrations of 10, 3, 1, 0.3 and 0.1 Mm and the stock solutions were then diluted with extracellular fluid to a final Mm test concentration. Except that the DMSO concentration in the 30 Mm compound test solution was 0.3%, the final concentration of DMSO in each of the compound solutions with other concentrations was 0.1%. The test concentration of a positive control Cisapridewas 0.1 Mm. All compound solutions were conventionally sonicated and shaken for 5 to 10 minutes to ensure complete dissolution of the compound.
3. Electrophysiological Recording System and Data Analysis
This experiment uses a manual patch clamp system (HEKA EPC-10 signal amplifier and digital conversion system, purchased from HEKA Electronics, Germany) for the recording of whole cell currents. The circular slides with CHO Herg cells growing on the surfaces were placed in an electrophysiological recording slot under an inverted microscope. The extracellular fluid was used for continuous perfusion in the recording slot (approximately lml per minute). The experimental procedure uses a conventional whole-cell patch clamp current recording technique. Unless otherwise stated, the experiment was carried out at regular room temperature ([…]). The cells were clamped at a voltage of −80 Mv. The cell clamp voltage was depolarized to +20 Mv to activate the Herg potassium channel, and 5 seconds later, it was clamped to −50 Mv to eliminate inactivation and generate tail current. The peak of the tail current was used as the value of the Herg current. After the hERG potassium current recorded in the above step was stabilized under the continuous extracellular fluid perfusion in the recording slot, the drug to be tested can be superimposed to the perfusion until the inhibitory effect of the drug on the hERG current reaches a steady state. Generally, the criterion for determine whether or not the stable state was reached was that the recent three consecutive current recording lines were coincident. After the steady state was reached, extracellular fluid perfusion was carried out for flushing until the hERG current returns to the magnitude before the drug was added. One cell may be used for testing one or more drugs, or multiple concentrations of the same drug, and flushing with extracellular fluid was carried out between tests of different drugs. Cisapride (purchased from Sigma) was used in the experiment as a positive control to ensure that the cells used were of normal quality. The test data was analyzed by data analysis software provided by HEKA Patchmaster, Microsoft Excel and Graphpad Prism.

[5] = tested on: arthritis induced by anti-collagen antibodies and lipopolysaccharides; assay: Rheumatoid arthritis model induced by anti-collagen antibodies and lipopolysaccharides; assay type: in vivo, Balb/c mice
Experimental: In Balb/c mice, arthritis was induced by administration of anti-collagen antibodies and lipopolysaccharides (Nandakumar et al., Am. J. Pathol. 2003, 163: 1827-1837).
The specific method was as follows: On Day 0, female Balb/c mice were intravenously injected with anti-type II collagen ChemicomAb mixture in a dose of 100 mg/kg, and on Day 1, lipopolysaccharide was intraperitoneally injected in a dose of 1.25 mg/kg. From Day 2 to Day 12, Compounds 15a, 17a, 24a and 24e were orally administered once a day in a dose of 10 mg/kg. On Day 13 after abdominal anesthesia, […] of blood was taken from the femoral artery and centrifuged at 3000 r/min for 20 minutes, serum was taken to detect IL-1β with a test kit, and related tissue samples were observed.

[6] = tested on: Mino subcutaneous xenograft tumor; assay: In-vivo pharmacodynamic study on Mino subcutaneous xenograft tumor models; conditions: CB17 SCID mice, intragastric, twice a day
Experimental: In CB17 SCID mice, 0.2 mL of cell suspension containing 5×10^6 Mino cells was subcutaneously inoculated into the right back of each mouse, and when the mean tumor volume reaches approximately 139.94 mm3 (day 26 after inoculation), group administration was started (intragastric administration, twice a day, 14 days in total). Animals were monitored daily for health and mortality, and tumor diameters were measured twice a week using vernier calipers to see if tumor growth could be inhibited, delayed, or cured.

[7] = Oral pharmacokinetic experiment in SD rats; assay type: in vivo; conditions: mean n = 3
Experimental: SD rats were used as experimental animals and were subjected to intragastric administration in a dose of 10 mg/kg and tail-vein intravenous injection in a dose of 2 mg/kg. The tail-vein blood sampling time points in the intragastric administration were 0.17, 0.33, 0.5, 1, 1.5, 2, 4, 6, 8, 12, and 24 hours; the blood sampling time points in the intravenous administration were 0.05, 0.1, 0.17, 0.5, 1, 2, 4, 6, 8, 12, and 24 hours. 0.3 ml of whole blood was taken, and 0.1 ml of plasma after centrifugation was taken and analyzed by LC-MS.

[8] = rat, plasma, oral (intragastric) 10 mg/kg

Sequence of BTK Kinase (Q06187 whole entry): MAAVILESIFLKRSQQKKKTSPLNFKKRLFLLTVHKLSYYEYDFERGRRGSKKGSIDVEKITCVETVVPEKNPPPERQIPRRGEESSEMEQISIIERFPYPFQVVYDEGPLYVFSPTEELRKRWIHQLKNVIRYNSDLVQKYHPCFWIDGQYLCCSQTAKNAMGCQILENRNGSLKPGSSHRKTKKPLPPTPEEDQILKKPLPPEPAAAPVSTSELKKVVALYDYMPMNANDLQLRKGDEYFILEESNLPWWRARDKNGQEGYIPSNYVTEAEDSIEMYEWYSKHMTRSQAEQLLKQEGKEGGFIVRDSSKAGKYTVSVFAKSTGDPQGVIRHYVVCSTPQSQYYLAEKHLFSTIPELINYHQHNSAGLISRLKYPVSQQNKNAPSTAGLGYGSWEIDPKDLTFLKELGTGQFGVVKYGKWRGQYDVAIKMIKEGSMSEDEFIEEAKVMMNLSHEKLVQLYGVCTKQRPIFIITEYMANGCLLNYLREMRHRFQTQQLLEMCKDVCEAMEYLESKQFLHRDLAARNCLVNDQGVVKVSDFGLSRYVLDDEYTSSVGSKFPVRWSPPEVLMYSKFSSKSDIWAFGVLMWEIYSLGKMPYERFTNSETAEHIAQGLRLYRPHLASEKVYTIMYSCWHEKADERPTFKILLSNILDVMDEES
Sequence of hERG potassium channel (Q12809 whole entry): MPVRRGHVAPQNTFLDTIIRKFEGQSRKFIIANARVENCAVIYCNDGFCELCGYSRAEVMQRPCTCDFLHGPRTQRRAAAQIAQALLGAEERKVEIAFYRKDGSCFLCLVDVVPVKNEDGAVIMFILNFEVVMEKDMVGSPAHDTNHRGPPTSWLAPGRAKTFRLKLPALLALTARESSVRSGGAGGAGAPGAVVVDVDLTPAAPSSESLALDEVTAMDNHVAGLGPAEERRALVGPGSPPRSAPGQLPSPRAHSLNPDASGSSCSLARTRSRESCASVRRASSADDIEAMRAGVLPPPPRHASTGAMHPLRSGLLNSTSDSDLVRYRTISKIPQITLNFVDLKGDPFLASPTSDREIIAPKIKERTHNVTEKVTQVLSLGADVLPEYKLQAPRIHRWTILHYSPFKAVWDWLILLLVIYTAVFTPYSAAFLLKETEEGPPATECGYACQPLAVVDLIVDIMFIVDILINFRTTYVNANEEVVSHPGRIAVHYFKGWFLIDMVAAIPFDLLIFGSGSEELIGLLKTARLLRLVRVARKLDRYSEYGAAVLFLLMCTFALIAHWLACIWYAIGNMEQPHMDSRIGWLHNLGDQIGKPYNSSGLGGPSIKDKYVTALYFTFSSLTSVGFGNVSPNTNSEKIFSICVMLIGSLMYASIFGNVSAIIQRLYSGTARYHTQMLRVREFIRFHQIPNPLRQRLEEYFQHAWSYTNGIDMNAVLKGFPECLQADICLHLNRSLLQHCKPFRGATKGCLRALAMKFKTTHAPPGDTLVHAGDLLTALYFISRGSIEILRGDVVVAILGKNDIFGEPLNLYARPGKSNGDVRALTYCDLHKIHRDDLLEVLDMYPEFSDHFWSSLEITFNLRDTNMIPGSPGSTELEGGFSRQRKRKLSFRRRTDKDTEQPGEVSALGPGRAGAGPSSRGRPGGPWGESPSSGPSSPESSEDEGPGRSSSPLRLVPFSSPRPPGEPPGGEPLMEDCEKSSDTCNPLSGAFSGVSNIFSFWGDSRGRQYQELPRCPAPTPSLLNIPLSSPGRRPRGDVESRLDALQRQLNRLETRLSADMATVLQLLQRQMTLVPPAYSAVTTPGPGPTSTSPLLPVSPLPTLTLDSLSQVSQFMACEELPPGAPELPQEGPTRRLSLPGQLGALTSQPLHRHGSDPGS

Structure (SMILES) | IC50 [1] | IC50 [2] | IC50 [3] | IC50 (BTK Kinase) | IC50 [4] | AUC0-C(ng/h/mL) ([7]; oral (intragastric) 10 mg/kg) | AUC0-t (ng/h/mL) ([7]; oral (intragastric) 10 mg/kg) | bioavailability ([7]; rat, plasma, oral 10 mg/kg vs intravenous 2 mg/kg) | Cmax [7, 8] | Tmax [7, 8] | half-life [7, 8] | IC50 (hERG potassium channel) | level of IL-1β in serum (in words) ([5]; 10 mg/kg orally once a day, versus model group) | IL-1β ([5]; serum on Day 13, 10 mg/kg orally once a day Day 2 to Day 12) | inflammatory cell infiltration, synovial hyperplasia, inflammatory granulation tissue formation, necrotic tissue ([5]; tissue samples after treatment, versus model group) | TGI*(14 days) (%) calculated on the basis of tumor volume [6] | TGI**(14 days) (%) calculated on the basis of tumor weight [6]
C=CC(=O)N1CCC[C@@H](n2nc(-c3cnc(Oc4ccccc4)nc3)c3c(N)ncnc32)C1 [Compound 18, (R)-1-(3-(4-amino-3-(2-phenoxypyrimidin-5-yl)-1H-pyrazolo[3,4-d]pyrimidin-1-yl)piperidin-1-yl)prop-2-en-1-one] | 8.14 nM | 32.1 nM | 19.5 µM | 10.3 nM | 20.3 µM | – | – | – | – | – | – | – | – | – | – | – | –
C=CC(=O)N1CCC[C@@H](n2nc(-c3ccc(Oc4ccccc4)cn3)c3c(N)ncnc32)C1 [Compound 19, (R)-1-(3-(4-amino-3-(5-phenoxypyridin-2-yl)-1H-pyrazolo[3,4-d]pyrimidin-1-yl)piperidin-1-yl)prop-2-en-1-one] | 10.2 nM | 13.6 nM | 4.52 µM | 5.3 nM | 7.12 µM | – | – | – | – | – | – | 10600 nM | – | – | – | – | –
CC/C=C/C(=O)N1CCC[C@@H](n2nc(-c3ccc(Oc4ccccc4)nc3)c3c(N)ncnc32)C1 [Compound 20a, (R)-1-(3-(4-amino-3-(6-phenoxypyridin-3-yl)-1H-pyrazolo[3,4-d]pyrimidin-1-yl)piperidin-1-yl) pent-2-en-1-one] | 15.2 nM | 12.5 nM | 7.7 µM | 18.6 nM | 8.92 µM | – | – | – | – | – | – | 14800 nM | – | – | – | – | –
C=CC(=O)N1CC[C@@H](n2nc(-c3ccc(Oc4ccccc4)nc3)c3c(N)ncnc32)C1 [Compound 23a, (R)-1-(3-(4-amino-3-(6-phenoxypyridin-3-yl)-1H-pyrazolo[3,4-d]pyrimidin-1-yl)pyrrolidin-1-yl)prop-2-en-1-one] | 28.3 nM | 6.91 nM | 2.83 µM | 4.4 nM | 9.19 µM | – | – | – | – | – | – | 18200 nM | – | – | – | – | –
C=CC(=O)N1CC[C@@H](n2nc(-c3ccc(Oc4cccc(F)c4F)nc3F)c3c(N)ncnc32)C1 [Compound 24e, (R)-1-(3-(4-amino-3-(6-(2,3-difluorophenoxy)-2-fluoropyridin-3-yl)-1H-pyrazolo[3,4-d]pyrimidin-1-yl)pyrrolidin-1-yl)prop-2-en-1-one] | 7.13 nM | 4.02 nM | 1.93 µM | 1.8 nM | 8.98 µM | 1620 ng·h/mL | 1600 ng·h/mL | 46.1% | 1440 ng/mL | 0.25 h | 3.57 h | – | significantly reduce | 20.45 ± 5.1 ng/L | significantly improved | 68.04% | 62.16%

These reach a lower IC50 [1]. Values come first.

IC50 [1] | IC50 [2] | IC50 [3] | IC50 (BTK Kinase) | IC50 [4] | AUC0-C(ng/h/mL) ([7]; oral (intragastric) 10 mg/kg) | AUC0-t (ng/h/mL) ([7]; oral (intragastric) 10 mg/kg) | bioavailability ([7]; rat, plasma, oral 10 mg/kg vs intravenous 2 mg/kg) | Cmax [7, 8] | Tmax [7, 8] | half-life [7, 8] | Structure (SMILES) | IC50 (hERG potassium channel) | level of IL-1β in serum (in words) ([5]; 10 mg/kg orally once a day, versus model group) | IL-1β ([5]; serum on Day 13, 10 mg/kg orally once a day Day 2 to Day 12) | inflammatory cell infiltration, synovial hyperplasia, inflammatory granulation tissue formation, necrotic tissue ([5]; tissue samples after treatment, versus model group) | TGI*(14 days) (%) calculated on the basis of tumor volume [6] | TGI**(14 days) (%) calculated on the basis of tumor weight [6]
2.37 nM | 3.58 nM | 2.88 µM | 9.5 nM | 8.19 µM | – | – | – | – | – | – | C=CC(=O)N1CCC[C@@H](n2nc(-c3ccc(Oc4ccc(F)cc4)nc3)c3c(N)ncnc32)C1 [Compound 15b, (R)-1-(3-(4-amino-3-(6-(4-fluorophenoxypyridine)-3-yl)-1H-pyrazolo[3,4-d]pyrimidin-1-yl)piperidin-1-yl)prop-2-en-1-one] | 11600 nM | – | – | – | – | –
4.99 nM | 3.19 nM | 8.21 µM | 6.5 nM | 8.35 µM | – | – | – | – | – | – | C=CC(=O)N1CCC[C@@H](n2nc(-c3ccc(Oc4ccc(C)cc4)nc3)c3c(N)ncnc32)C1 [Compound 15i] | 13500 nM | – | – | – | – | –
3.8 nM | 2.04 nM | 1.02 µM | 1.2 nM | 7.65 µM | – | – | – | – | – | – | C=CC(=O)N1CCC[C@@H](n2nc(-c3ccc(Oc4cccc(F)c4F)nc3F)c3c(N)ncnc32)C1 [Compound 17i, (R)-1-(3-(4-amino-3-(6-(2,3-difluorophenoxy)-2-fluoropyridin-3-yl)-1H-pyrazolo[3,4-d]pyrimidin-1-yl)piperidin-1-yl)prop-2-en-1-one] | – | – | – | – | – | –
5.18 nM | 5.13 nM | 5.3 µM | 25.1 nM | 6.5 µM | – | – | – | – | – | – | CC#CC(=O)N1CC[C@@H](n2nc(-c3ccc(Oc4ccccc4)nc3)c3c(N)ncnc32)C1 [Compound 25a, (R)-1-(3-(4-amino-3-(6-phenoxypyridin-3-yl)-1H-pyrazolo[3,4-d]pyrimidin-1-yl)pyrrolidin-1-yl)but-2-yn-1-one] | 13600 nM | – | – | – | – | –
